Measured values published in patent publication US9932646B2, “Detection and use of antiviral resistance mutations” (ABL SA, priority 2006, dated 2018).
Entries after “also recorded” stand apart in the source; their conditions may differ. Counter-ions that a name gives are not always drawn.

Key:
HBV [1] = conditions: cited from earlier work
HIV = conditions: cited from earlier work
HBV [2] = assay: Clinical response / resistance of HBV patients to nucleoside or nucleotide analog treatment; format: in vivo, human
Excerpt: The present invention is predicated in part on the identification and isolation of nucleoside or nucleotide analog-resistant variants of HBV following treatment of patients with either ADV or LMV or ETV or more particularly ADV and LMV or TFV and LMV, or ETV and optionally one or more other nucleoside analogs or nucleotide analogs or other anti-HBV agents such as TFV, LdT, or FTC. […] Reference herein to “decreased” or “reduced” in relation to sensitivity to ADV and/or LMV and/or FTC and/or TFV and/or ETV includes and encompasses a complete or substantial resistance to the nucleoside or nucleotide analog or other anti-HBV agents as well as partial resistance and includes a replication rate or replication efficiency which is more than a wild-type in the presence of a nucleoside or nucleotide analog or other anti-HBV agents. In one aspect, this is conveniently measured by an increase in viral load during treatment, or alternatively, there is no substantial decrease in HBV DNA viral load from pre-treatment HBV DNA levels during treatment (i.e., non-response to treatment).
Hepatitis B surface antigen (HBsAg), hepatitis B e antigen (HBeAg), anti-HBe and hepatitis B core antigen (HBcAg) specific IgG and IgM were measured using commercially available immunoassays (Abbott Laboratories, North Chicago, Ill., USA). Hepatitis B viral DNA levels were measured using a capture hybridization assay according to the manufacturer's directions (Digene Hybrid Capture II, Digene Diagnostics Inc., Beltsville, Md.). The manufacturers stated cut-off for detecting HBV viremia in clinical specimens was 0.7×10^6 copies/ml or 2.5 pg/ml, [Hendricks et al, Am J Clin Pathol 104:537-46, 1995]. HBV DNA levels can also be quantitated using other commercial kits such as Cobas amplification HBV monitor kit (Roche). […]
The specific amplified products were purified using PCR purification columns from MO BIO Laboratories Inc (La Jolla, Calif.) and directly sequenced using Big Dye terminator Cycle sequencing Ready Reaction Kit (Perkin Elmer, Cetus Norwalk, Conn.). […]

[3] = ALT in patients during antiviral therapy; format: in vivo, human; conditions: Patient G, ADV therapy
HBV [4] = conditions: cited from earlier work; remark: listed apart in the source

SMILES: CC(C)OC(=O)OCOP(=O)(CO[C@H](C)Cn1cnc2c(N)ncnc21)OCOC(=O)OC(C)C [TFV, tenofovir disoproxil fumarate]
- activity against HBV (HBV [1]): antiviral activity
- inhibition of HBV replication (HBV [1]): potent inhibitor
- activity against HIV (HIV): antiviral activity

SMILES: C=C1[C@H](CO)[C@@H](O)C[C@@H]1n1cnc2c(=O)[nH]c(N)nc21 [ETV, entecavir]
- response to treatment (HBV [2]; Patient H, sequential then combination treatment): resistant
- response to treatment (HBV [2]; Patient J, previously treated with LMV, then ADV, then ETV): did not respond

SMILES: Cc1cn([C@@H]2C[C@@H](O)[C@H](CO)O2)c(=O)[nH]c1=O [LdT, beta-Lthymidine]
- activity against HBV (HBV [1]): activity

SMILES: Nc1ncnc2c1ncn2C1CC(O)C(CO)O1 [LdA, beta-L-2′-deoxyadenosine]
- activity against HBV (HBV [1]): activity

SMILES: Nc1ccn([C@@H]2C[C@@H](O)[C@H](CO)O2)c(=O)n1 [LdC, beta-L-2′-deoxycytidine]
- activity against HBV (HBV [1]): activity

SMILES: CC(C)(C)C(=O)OCOP(=O)(COCCn1cnc2c(N)ncnc21)OCOC(=O)C(C)(C)C [ADV, adefovir dipivoxil]
- ALT [3]: 467 IU/ml
- response to treatment (HBV [2]; human, in vivo): resistant; also recorded: did not respond
- clinical activity against both wild-type and lamivudine-resistant strains of HBV (HBV [4]; in vivo): demonstrated clinical activity
- mean decrease in viremia (HBV [4]; phase II studies, 30 mg daily dose, over 12 weeks): 4 log10
- inhibition of HBV replication (HBV [1]): potent inhibitor

SMILES: Nc1nc(=O)n([C@@H]2CS[C@H](CO)O2)cc1F [FTC, (−)-β-L-2′-3′-dideoxy-5-fluoro-3′-thiacydidine]
- activity against HBV (HBV [1]): activity
- activity against HIV (HIV): activity
